Reference: ChEMBL document CHEMBL1201862, “PubChem BioAssay data set” (2004)
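Grown in 96-well plates, cells were treated for 48 hours with each compound at five concentrations. Insufficient inhibition: endpoint recorded as highest concentration tested. GI50 marks 50% less growth.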 Active and inactive are the calls of the source. Cut-off read from the data, not from the text of the source: active = GI50 up to about 1.1 µM and inactive = higher.

Columns and labels:
Assay in all cases: inhibition of tumour cell growth, NCI panel, 48 h
U-251 = tested on: U-251
SK-MEL-5 = tested on: SK-MEL-5
K562 = tested on: K562
SF-295 = tested on: SF-295
SF-268 = tested on: SF-268
HOP-62 = tested on: HOP-62
UACC-257 = tested on: UACC-257
OVCAR-3 = tested on: OVCAR-3
DU-145 = tested on: DU-145
OVCAR-8 = tested on: OVCAR-8
UACC-62 = tested on: UACC-62
MDA-MB-435 = tested on: MDA-MB-435
NCI-H460 = tested on: NCI-H460
ACHN = tested on: ACHN
TK-10 = tested on: TK-10
RPMI-8226 = tested on: RPMI-8226
SK-MEL-2 = tested on: SK-MEL-2
A549 = tested on: A549
Malme-3M = tested on: Malme-3M
SK-MEL-28 = tested on: SK-MEL-28

Measured: GI50

O=[N+]([O-])c1ccc(/N=N/N2CCCC2)cc1
inactive: U-251 > 100 µM | SK-MEL-5 > 100 µM | K562 > 100 µM | SF-295 > 100 µM | SF-268 > 100 µM | HOP-62 > 100 µM | UACC-257 > 100 µM | OVCAR-3 > 100 µM | DU-145 > 100 µM | OVCAR-8 > 100 µM | UACC-62 > 100 µM | MDA-MB-435 > 100 µM | NCI-H460 > 100 µM | ACHN > 100 µM | TK-10 > 100 µM | RPMI-8226 > 100 µM | SK-MEL-2 > 100 µM

O=S(=O)(O)c1ccc2c(/N=N/c3ccccc3Cl)c(O)ccc2c1
inactive: U-251 > 100 µM | SK-MEL-5 > 100 µM | A549 > 100 µM | K562 > 100 µM | SF-295 > 100 µM | SF-268 > 100 µM | HOP-62 > 100 µM | UACC-257 > 100 µM | OVCAR-3 > 100 µM | DU-145 > 100 µM | OVCAR-8 > 100 µM | Malme-3M > 100 µM | UACC-62 > 100 µM | MDA-MB-435 > 100 µM | SK-MEL-28 > 100 µM | ACHN > 100 µM | TK-10 > 100 µM | RPMI-8226 > 100 µM | SK-MEL-2 > 100 µM

C/C(=N\n1c(Cc2ccccc2)n[nH]c1=O)c1ccc([N+](=O)[O-])cc1
inactive: U-251 > 100 µM | SK-MEL-5 > 100 µM | A549 > 100 µM | K562 > 100 µM | SF-295 91.8 µM | HOP-62 49.2 µM | UACC-257 > 100 µM | OVCAR-3 > 100 µM | DU-145 > 100 µM | OVCAR-8 69.7 µM | Malme-3M > 100 µM | UACC-62 > 100 µM | MDA-MB-435 > 100 µM | NCI-H460 > 100 µM | SK-MEL-28 > 100 µM | TK-10 > 100 µM | RPMI-8226 50.4 µM | SK-MEL-2 > 100 µM

COc1c(Br)cc2ccccc2c1-c1c(OC)c(Br)cc2ccccc12
inactive: U-251 > 100 µM | SK-MEL-5 67.5 µM | A549 > 100 µM | K562 38.9 µM | SF-295 > 100 µM | SF-268 > 100 µM | HOP-62 > 100 µM | UACC-257 > 100 µM | OVCAR-3 > 100 µM | DU-145 > 100 µM | OVCAR-8 > 100 µM | UACC-62 > 100 µM | MDA-MB-435 > 100 µM | NCI-H460 > 100 µM | SK-MEL-28 > 100 µM | ACHN > 100 µM | TK-10 > 100 µM | RPMI-8226 80.5 µM | SK-MEL-2 > 100 µM

C/C(=C/CC[C@](C)(OC1OC(CO)C(O)C(O)C1O)[C@H]1CC[C@]2(C)[C@@H]1CC[C@@H]1[C@@]3(C)CC[C@H](O)C(C)(C)[C@@H]3C[C@H](O)[C@]12C)CO (stereo partly drawn)
inactive: U-251 13.6 µM | SK-MEL-5 18.2 µM | A549 39.5 µM | K562 13.4 µM | SF-295 14.8 µM | SF-268 21.8 µM | HOP-62 26.3 µM | UACC-257 22.6 µM | OVCAR-3 24.2 µM | DU-145 85.7 µM | OVCAR-8 33.3 µM | Malme-3M 21.6 µM | UACC-62 19.1 µM | MDA-MB-435 36 µM | NCI-H460 16.8 µM | SK-MEL-28 18.2 µM | ACHN 40.6 µM | TK-10 55.7 µM | RPMI-8226 5.4 µM

CC(=O)OCCn1cnc2c(NCC=C(C)C)ncnc21
inactive: SK-MEL-5 > 100 µM | A549 > 100 µM | K562 > 100 µM | SF-295 > 100 µM | SF-268 > 100 µM | HOP-62 > 100 µM | UACC-257 > 100 µM | OVCAR-3 > 100 µM | DU-145 > 100 µM | OVCAR-8 > 100 µM | Malme-3M > 100 µM | MDA-MB-435 > 100 µM | NCI-H460 > 100 µM | SK-MEL-28 > 100 µM | ACHN > 100 µM | TK-10 > 100 µM | RPMI-8226 > 100 µM

CN(C)Cc1cc(/N=N/c2ccccc2Cl)cc(CN(C)C)c1O
inactive: U-251 84.3 µM | SK-MEL-5 18.2 µM | A549 77.4 µM | K562 37.5 µM | SF-295 44.7 µM | SF-268 73.8 µM | HOP-62 6.67 µM | UACC-257 20.1 µM | OVCAR-3 21.4 µM | DU-145 > 100 µM | OVCAR-8 45.5 µM | Malme-3M > 10 µM | UACC-62 26.2 µM | MDA-MB-435 34.4 µM | NCI-H460 47.2 µM | SK-MEL-28 18.5 µM | ACHN > 100 µM | TK-10 > 100 µM | RPMI-8226 > 100 µM
